# Legend:
# BerB = molecular target: T1, BerB (Burkholderia cenocepacia, UniProt B4EHY3); assay: SPR, steady-state affinity fit; assay type: binding; conditions: labelled compound; biotinylated c-di-GMP immobilised on chip, protein injected; HEPES buffer pH 7.4, 150 mmol/L NaCl, 0.05% Tween
# T1 construct: gene BCAM1342; berB in pGEX-6P-2, expressed in E. coli Rosetta (DE3) pLysS as GST fusion, eluted with glutathione
# Text: SPR, steady-state affinity fit on BerB | BerB was able to bind to the biotinylated c‐di‐GMP in a concentration‐dependent manner
# BerA = molecular target: T2, BerA (Burkholderia cenocepacia, UniProt B4EIC5); assay: SPR, steady-state affinity fit; assay type: binding; conditions: labelled compound; biotinylated c-di-GMP immobilised on chip, protein injected; PBS buffer pH 7.4; known binder as positive control
# T2 construct: gene BCAM1349; berA in pGEX-6P-2, expressed in E. coli Rosetta (DE3) pLysS as GST fusion, eluted with glutathione
# T2 sequence (B4EIC5 entry or part of it): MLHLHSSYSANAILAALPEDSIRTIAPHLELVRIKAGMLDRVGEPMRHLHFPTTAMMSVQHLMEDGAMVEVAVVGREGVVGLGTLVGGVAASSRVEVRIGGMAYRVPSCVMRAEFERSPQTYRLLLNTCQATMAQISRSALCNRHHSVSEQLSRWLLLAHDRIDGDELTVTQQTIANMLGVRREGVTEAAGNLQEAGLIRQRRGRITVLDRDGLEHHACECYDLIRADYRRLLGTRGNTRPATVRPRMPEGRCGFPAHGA
# T1 sequence (B4EHY3 entry or part of it): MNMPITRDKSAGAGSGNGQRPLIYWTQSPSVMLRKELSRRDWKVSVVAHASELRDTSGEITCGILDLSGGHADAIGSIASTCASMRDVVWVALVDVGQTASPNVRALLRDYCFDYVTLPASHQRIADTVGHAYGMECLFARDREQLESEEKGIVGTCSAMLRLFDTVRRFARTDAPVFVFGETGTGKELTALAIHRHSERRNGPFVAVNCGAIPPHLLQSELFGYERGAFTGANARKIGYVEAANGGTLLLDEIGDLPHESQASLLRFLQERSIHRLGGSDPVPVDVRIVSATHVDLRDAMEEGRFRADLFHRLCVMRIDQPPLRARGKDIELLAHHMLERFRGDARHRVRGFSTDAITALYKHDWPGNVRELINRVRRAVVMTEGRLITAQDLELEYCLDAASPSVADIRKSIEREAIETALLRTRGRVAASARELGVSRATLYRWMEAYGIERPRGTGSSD
substance,measurement,setting,value
biotinylated c-di-GMP,Kd,BerB,~3000 nM
same,Kd,BerA,~3000 nM

# From publication PMC5552954, “Regulation of Burkholderia cenocepacia biofilm formation by RpoN and the c‐di‐GMP effector BerB” (MicrobiologyOpen, 2017)
